Results from patent US9566265B2, “Carbazole compounds and therapeutic uses of the compounds” (Incuron, LLC, priority 2008, dated 2017).
Read-outs that look alike come from different tables or passages of the source.

How the values were obtained:
[1] = tested on: p53; assay: p53 activation assay, p53 responsive luciferase reporter cell line; format: cell-based, human; settings: for p53 activation, active or inactive carbazole: structural analysis, FIGS. 6 and 7
Description: The potency of a present carbazole compound is determined by measuring an ability of the compound to inhibit NF-κB activity or to activate p53. […] Theoretically, such assays of the dose-response effect of activator compounds can be described as a sigmoidal curve expressing a degree of activation as a function of concentration. The curve also theoretically passes through a point at which the concentration is sufficient to increase activity to a level that is 50% that of the difference between a baseline and the maximal activity in the assay. […] Determination of an EC50 value is made using conventional biochemical (acellular) assay techniques or cell-based assay techniques.
The potency of a carbazole compound is determined by measuring an ability of the compound to activate p53.
The p53 activation assay for determination of the EC50 value was performed as follows:
HT1080-L (human fibrosarcoma cells with ConALuc reporter)
RCC45ConALuc (human renal cell carcinoma cell line with ConALuc reporter)
1. Two types of standard cells were used, either HT1080-L or RCC45ConALuc cells. Both cell lines stably express a p53 responsive luciferase reporter construct.
2. HT1080-L cells were grown in DMEM medium containing 10% FBS. RCC45ConALuc cells were grown in RPMI medium containing 10% FBS (Pen/Strep can be added to a final concentration of 1%, if desired). Both cell lines were grown in a humidified incubator at 37° C. with 5% CO2. For normal culturing, both cell lines were split using 1× trypsin-EDTA at a ratio of 1:20 for HT1080-L and 1:5 for RCC45ConALuc cells every 3-4 days (when cells are 80-90% confluent).
3. A day before the experiment, the cells are trypsinized for about 5 minutes in 1× tripsin/EDTA solution in 37° C. incubator and plated in 96 well plates. HT1080-L cells were seeded at a density of 1×10^4/well in standard DMEM medium in a volume of 50 μl. RCC45ConALuc were seeded at a density of 2×10^4/well in the volume of 50 uL in standard RPMI medium.
4. The next day, various carbazole compounds were prepared by dilution of stock solutions in standard DMEM medium such that the cells were treated with the final chemical concentrations in Table 1 below. Stock solutions were made up in DMSO. Typically, chemicals were made up as 20 mM stock solutions.
5. Each tested compound used two rows of a 96-well plate, thus four compounds (e.g., W, X, Y, Z) were tested in one plate simultaneously. In addition to test compounds, each plate included positive and negative controls. As positive control, 9aa was used at a dose of 3 μM. As a negative control, DMSO was used in final concentration 0.1%.
1. Dilutions of chemicals added to the plate were made up as 2× concentrations in standard DMEM and added to corresponding well in a volume of 50 μl.
2. Chemicals were diluted in standard DMEM by two time serial dilutions starting from 40 μM (2× of highest concentration, e.g., 20 μM). For one cell line, the minimum volume was 125 μL of 2× working solution of chemical of each concentration in standard DMEM.
4. Sixteen hours following compound addition, all wells with the highest concentrations of compounds are checked microscopically for the presence of toxic effect, because death of cells caused by compounds may not allow detecting luciferase activity. If cytotoxocity is evident, other doses of the same compounds were checked for the presence of toxicity. The lowest dose causing toxic effect was recorded.
5. After microscopic examination, 15 μl of Bright Glo luciferase assay system were added to each well and after 5 min incubation at RT, the plates were read on a 96 well plate luminometer with a measurement time of 0.1 sec. A shaking step was included before measurement.
6. The folds of luciferase activation for each concentration of each chemical were calculated by dividing the detected luciferase activity at each chemical concentration by the average of the luciferase activity for the DMSO control on the same plate.

[2] = tested on: Bacillus subtilis; assay: antibacterial cytotoxicity assay, gram(+) bacteria (OD600); format: cell-based; settings: B. subtilis, 48 hours, over a range of potencies; FIG. 13B
Description: In vitro test to evaluate the effect of carbazole compounds on gram(-) and gram(+) bacteria. Two days prior to the start of the cytotoxicity assay, inoculate DH5-α and B. subtilis into 1 ml of corresponding media from glycerol stocks. Allow to grow during the course of the day at 37° C. with shaking. Streak each bacteria on the appropriate agar plates using a sterile inoculation loop and allow to grow overnight at 37° C. in the bacteria incubator. Using a sterile inoculation loop, pick a single colony of bacteria and inoculate 5 ml of the corresponding media in a 14 ml snap cap tube. Grow overnight ( 16 h) at 37° C. with shaking. […] Dilute 5 ml cultures of DH5-α and B. subtilis to an OD600 nm of 0.002, which corresponds to about 2×10^6 cells/ml in a volume sufficient for the experiment (dependent on the number of plates). Plate out 50 μl into each well of X 96-well plates (X=# plates needed for a given experiment). […] Chemicals for testing are prepared by dilution of stock solutions in LB Broth or Nutrient Broth for DH5-α and B. subtilis studies, respectively. Cells are treated with the final chemical concentrations presented in the scheme below (Table 2). Stock solutions are made up in DMSO. […] However, this concentration is dependent on the solubility of a given chemical and actual stock concentrations must be noted at time of experiment. Each library chemical to be tested requires 2 rows of a 96-well plate, thus 4 chemicals ([…]) can be tested in one plate simultaneously. In addition to test chemicals, each plate should include positive and negative controls. As positive control, ampicillin is used at 100 μg/ml. […] Dilutions of chemicals to be added to the plate are made up as 2× concentrations in appropriate bacteria media and added to corresponding wells in a volume of 50 μl. […] This process is repeated until all 10 2× doses are prepared. […] Following the addition of carbazole compounds to 96-well plates containing bacteria, plates are transferred to the 37° C. bacteria incubator for 48 hours. After the incubation, the OD600 mm for each well of the 96-well plates will be measured. […] The % DMSO control is plotted vs compound concentration to generate sigmoid shaped curves. After three runs are complete, the raw data for all three runs is used for IC50 calculations.

[3] = tested on: HB 101 E. coli; assay: antibacterial cytotoxicity assay, gram(−) bacteria (OD600); format: cell-based; settings: 48 hours, over a range of potencies, FIG. 13A
[4] = tested on: Plasmodium falciparum (strain D10); assay: Plasmodium falciparum in vitro culture, infected erythrocytes; format: cell-based; settings: tested at 29, 57, 143 nM or 143 nM only; FIG. 12
Description: In particular, the effect of carbazole compounds on the malaria parasite was tested by culturing Plasmodium falciparum (strain D10) in vitro in the presence or absence of test compounds.
In each experiment, 1000 erythrocytes were assessed microscopically to determine the number of infected cells.

[5] = tested on: Caki1 human renal cell carcinoma cells; assay: Caki1 renal cell carcinoma xenograft efficacy test; settings: Day 24 (end of treatment); oral gavage 5 day on/2 day off; Example 7 30, Example 15 5, Example 13 25, Sunitinib 40 mg/kg
Description: In an efficacy test using these three compounds, athymic nude mice were inoculated subcutaneously with a suspension of Caki1 human renal cell carcinoma cells into both rear flanks. When at least one tumor in a mouse reached 20-50 mm^3, treatment was commenced. […] As a positive control, one group was treated with 40 mg/kg Sunitinib, an approved drug for the treatment of renal cell carcinoma. Treatment was given for 4 weeks on a 5 day on/2 day off schedule. After treatment was completed, mice were monitored for an additional 4 weeks to determine how quickly tumor growth returned to normal.

[6] = tested on: Bloodstream T. brucei; assay: T. brucei bloodstream form in vitro killing; format: cell-based, Trypanosoma brucei; settings: Trypanosoma brucei, read-out: IC50 (concentration that killed 50% of the parasites); bloodstream stage, 48 hrs of culture
Description: Preliminary T. brucei inactivation experiments were performed in vitro. The life cycle of T. brucei involves a “procyclic” developmental stage in a tsetse fly, and a “bloodstream” form in humans. All studies were performed with the bloodstream stage of the parasite, because it is the disease-causing developmental stage.
Suramin, a conventional anti-HAT drug, was used as a positive control.
Bloodstream T. brucei was seeded (3×10^3 cells/mL) in 24-well (500 uL of the media per well) plate. […] Control cultures received equal volumes of DMSO.

[7] = Homo sapiens, 16 h, HT1080-L or RCC45ConALuc reporter cells, 16 h, read-out: EC50 value (p53 activation)
[8] = HT1080-L or RCC45ConALuc reporter cells, 16 h, read-out: EC50 value (p53 activation)
[9] = Table 3, test compounds of the malaria experiment
[10] = Homo sapiens, HT1080-L or RCC45ConALuc reporter cells, 16 h, read-out: EC50 value (p53 activation)

Work on CCN(CC)CCn1c2ccc(C(C)=O)cc2c2cc(C(C)=O)ccc21 [Compound 3a] yielded an EC50 [1, 7] of 0.29 µM.
For CC(=O)c1ccc2c(c1)c1cc(C(C)=O)ccc1n2CCCN(C)C [Compound 3b], the EC50 [1, 7] was 0.49 µM.
CC(=O)c1ccc2c(c1)c1cc(C(C)=O)ccc1n2CCC1CCCN1C (stereo not drawn) [Compound 3e] was tested, and the EC50 [1, 7] was 0.78 µM.
For CCC(=O)c1ccc2c(c1)c1cc(C(=O)CC)ccc1n2CCCN(C)C [Compound 7d], the EC50 [1, 7] was 0.64 µM.
With CC(=O)c1ccc2c(c1)c1c3c(ccc1n2CCC1CCCN1C)C(=O)CC3 (stereo not drawn) [Compound 18c-1] the “antibacterial effect” value [2] was “antibacterial effect”, the “antibacterial effect” value [3] was “antibacterial effect” and the EC50 [1, 7] was 0.08 µM.
CC(=O)c1ccc2c(c1)c1c3c(ccc1n2CC[C@@H]1CCCN1C)C(=O)CC3 [Compound 18c-2] gave an EC50 [1, 7] of 0.1 µM.
CCN(CC)CCn1c2ccc(C(C)=O)cc2c2cc(C(C)=O)c(O)cc21 [Compound 19a] showed an EC50 [1, 7] of 0.4 µM.
CC(=O)c1cc2c3c4c(ccc3n(CCCN(C)C)c2cc1O)C(=O)N(C)C4 [Compound 19e] was tested, and the EC50 [1, 7] was 0.07 µM.
Compound CCN(CC)CCn1c2ccccc2c2cc(C(C)=O)c(O)cc21 [Compound 22, 3-Acetyl-2-hydroxy-9-N,N-diethylaminoethylcarbazole] has an EC50 [1, 8] of 0.53 µM.
In the case of CN(C)CCCN(c1ccccc1)c1ccc2c(c1)CCC2=O [Compound 200, reference compound], the “p53 activation, active or inactive carbazole” value [1] is reported as “inactive”.
With CCN(CC)CCn1c2ccc(C(C)=O)cc2c2cc(C(C)=O)ncc21 [Compound 300, reference compound] the “p53 activation, active or inactive carbazole” value [1] was “active”.
With CCN(CC)CCn1c2ccccc2c2cc(C(C)=O)ncc21.Cl [Compound 400, reference compound] the “anti-malarial activity, parasitemia reduction” value [4] was “no parasitemia reduction” and the “EC50, μM (p53 activation assay)” value [1, 9] was “Inactive”.
In the case of CCCCCn1c2ccc(C(C)=O)cc2c2c3c(ccc21)C(=O)CC3 [Compound 500, reference compound], the “anti-malarial activity, parasitemia reduction” value [4] is reported as “no parasitemia reduction” and the “EC50, μM (p53 activation assay)” value [1, 9] is reported as “Inactive”.
In the case of CC(=O)c1ccc2c(c1)c1cc(C(C)=O)ccc1n2CCC1CCCN1C (stereo not drawn) [Example 2, 1,1′-{9-[2-(1-Methylpyrrolidin-2-yl)ethyl]-9H-carbazole-3,6-diyl}diethanone], the “anti-malarial activity, parasitemia reduction” value [4] is reported as “anti-malarial activity comparable to quinacrine”, the EC50 ([1]; Homo sapiens, read-out: EC50, μM (p53 activation assay)) is reported as 0.64 µM and the EC50 [1, 10] is reported as 0.64 µM. The “p53 activation, active or inactive carbazole” value [1] was “active”.
CC(=O)c1cc2c3c4c(ccc3n(CCCN(C)C)c2cc1O)C(=O)CC4 [Example 4, 9-Acetyl-6-[3-(dimethylamino)propyl]-8-hydroxy-1,6-dihydrocyclopenta[c]carbazol-3(2H)-one] was tested, and the “antibacterial effect” value [2] was “antibacterial effect”, the “antibacterial effect” value [3] was “antibacterial effect” and the EC50 ([1]; Homo sapiens, 16 h, read-out: EC50 value (p53 activation, μM)) was 0.07 µM.
With CCCNCCCn1c2ccc(C(C)=O)cc2c2c3c(ccc21)C(=O)CC3 [Example 6, 9-Acetyl-6-[3-(propylamino)propyl]-1,6-dihydrocyclopenta[c]carbazol-3(2H)-one] the EC50 [1, 8] was 0.24 µM.
CC(=O)c1cc2c3cc(C(C)=O)c(O)cc3n(CCCN(C)C)c2cc1O [Example 12] was tested, and the “antibacterial effect” value [2] was “antibacterial effect” and the “antibacterial effect” value [3] was “antibacterial effect”.
CCCNCCCn1c2ccc3c(c2c2c4c(ccc21)C(=O)CC4)CCC3=O [Example 14] was tested, and the EC50 [1, 7] was 0.05 µM.
CN(C)CCCn1c2ccc([N+](=O)[O-])cc2c2cc([N+](=O)[O-])ccc21 [Example 21] was tested, and the EC50 [1, 8] was 0.83 µM.
Compound CCN(CC)CCCn1c2ccc([N+](=O)[O-])cc2c2cc([N+](=O)[O-])ccc21 [Example 23] has an EC50 [1, 10] of 0.88 µM.
For O=[N+]([O-])c1ccc2c(c1)c1cc([N+](=O)[O-])ccc1n2CCCN1CCCC1 [Example 24], the EC50 [1, 10] was 0.78 µM.
CNCCCn1c2ccc([N+](=O)[O-])cc2c2cc([N+](=O)[O-])ccc21 [Example 25] gave an EC50 [1, 10] of 0.88 µM.
Compound CCN(CC)CCn1c2ccc(C(=O)NC)cc2c2cc(C(=O)NC)ccc21 [Example 27] has an EC50 [1, 7] of 0.54 µM.
For CCN(CC)CCCC(C)Nc1c2ccc(Cl)cc2nc2ccc(OC)cc12 (stereo not drawn) [Quinacrine, reference compound], the EC50 ([1]; Homo sapiens, Table 3, test compounds of the malaria experiment, read-out: EC50, μM (p53 activation assay)) was ~5 µM.
In the case of CCN(CC)CCNC(=O)c1c(C)[nH]c(/C=C2\C(=O)Nc3ccc(F)cc32)c1C [Sunitinib, reference compound], the “tumor growth inhibition compared to the vehicle control” value [5] is reported as 42%.
With Cc1ccc(C(=O)Nc2ccc(S(=O)(=O)O)c3cc(S(=O)(=O)O)cc(S(=O)(=O)O)c23)cc1NC(=O)c1cccc(NC(=O)Nc2cccc(C(=O)Nc3cc(C(=O)Nc4ccc(S(=O)(=O)O)c5cc(S(=O)(=O)O)cc(S(=O)(=O)O)c45)ccc3C)c2)c1 [Suramin, reference compound] the IC50 [6] was > 0.3 µM.
